The conditions of data set [1]: microsomes.
Experimental: (§1) Determination of Metabolic Stability with Human Liver Microsomes
(§2) The metabolic degradation of the test compound is assayed at 37° C. with pooled human liver microsomes. The final incubation volume of 100 μl per time point contains TRIS buffer pH 7.6 (0.1 M), magnesium chloride (5 mM), microsomal protein (1 mg/ml) and the test compound at a final concentration of 1 μM. Following a short preincubation period at 37° C., the reactions are initiated by addition of beta-nicotinamide adenine dinucleotide phosphate, reduced form (NADPH, 1 mM) and terminated by transferring an aliquot into acetonitrile after different time points. Additionally, the NADPH-independent degradation is monitored in incubations without NADPH, terminated at the last time point. The [%] remaining test compound after NADPH independent incubation is reflected by the parameter c(control) (metabolic stability). The quenched incubations are pelleted by centrifugation (10,000 g, 5 min). An aliquot of the supernatant is assayed by LC-MS/MS for the amount of parent compound.
(§3) The half-life (t1/2 INVITRO) is determined by the slope of the semilogarithmic plot of the concentration-time profile. The intrinsic clearance (CL_[sequence]) is calculated by considering the amount of protein in the incubation: CL_[sequence] [μl/min/mg protein]=(In 2/(half-life [min]*protein content [mg/ml]))*1,000.
Data set [2] concerns Neutrophil elastase activity in U937 cells. Nature of the data set: Determination of neutrophil elastase activity in U937 cytosolic lysate preparation after incubation with test compound. Format: cell-based. As to conditions: Homo sapiens, U-937, read-out: Reduction of NE-activity in U937 cells IC50. As to the method: Determination of Neutrophil Elastase Activity in U937 Cytosolic Lysate Preparation after Incubation with Test Compound
Optiplate 384F were purchased from PerkinElmer (Prod. No. #6007270). 24 well Nunclon cell culture plates (No. 142475) and 96 well plates (No. 267245) were from Nunc. Dimethylsulfoxid (DMSO) was from Sigma (Prod. No. D8418). Nonidet-P40 (NP40) was from USBiological (Prod. No. N3500)
Substrate, specific for Neutrophil elastase, was from Bachem (MeOSuc-Ala-Ala-Pro-Val-AMC; Prod. No. 1-1270).
Human neutrophil elastase was from Calbiochem (Prod. No. 324681)
Tris-buffer (100 mM Tris; 1M NaCL; pH 7.5)
Tris-buffer+HSA 0.1%; Human Serum Albumin from Calbiochem (Cat#. 126658)
Serine-protease buffer (20 mM Tris; 100 mM NaCL; pH 7.5)+0.1% HSA
Serine protease lysis buffer: 20 mM Tris-HCL; 100 mM NaCl pH 7.5; +0.2% Nonidet-P40;
PBS: phosphate buffered saline, without Ca and Mg, from Gibco
U937 from ECACC (Cat. No. 85011440) cultured in suspension at 37° C. and 5% CO2.
Cell density: 0.2-1 Mio. Cells/ml.
Medium: RPMI1640 GlutaMAX (No. 61870) with 10% FCS from Gibco
Cell Seeding and Treatment:
Compounds in 100% DMSO were diluted in Medium (—FCS) with 10% DMSO and further diluted according to the experiment planned.
20 μl of the compound solution was transferred in the respective wells of the 24 well plate and diluted with 2 ml cell suspension/well containing […] (final concentration of DMSO=0.1%). Compound dilution factor=100
Compounds (up to 7 concentrations) were tested in triplicates with 3 wells for the DMSO 0.1% control, incubated for 48 hours without medium change at 37° C., 5% CO2 and 95% relative humidity.
Cell Harvesting and Cell Lysate:
Transfer the cell suspension in 2.2 ml Eppendorf cups. Separate cells from medium by centrifugation (400×g; 5 min; RT); discard the supernatant. Resuspend in 1 ml PBS; centrifugation (400×g; 5 min; RT); wash cells twice with PBS. Add 100 μl Serin lysis buffer (ice cold) to the cell pellet; resuspend the pellet and store on ice for 15 minutes. Remove debris by centrifugation at 15000×g for 10 min at 4° C. Transfer 80-100 μl lysate supernatant in 96 well plate and store immediately at −80° C.
Neutrophil Elastase Activity Assay:
Frozen lysates were thawn at 37° C. for 10 minutes and stored on ice. Protein content was determined with Bradford protein assay. Lysates were diluted to 0.2-0.5 mg/ml protein in serine protease buffer+HSA.
Standard: NE (100 μg/ml stock solution in Tris-buffer; stored at −80° C.) was diluted in Tris-buffer+HSA to 750 ng/ml, and further serially diluted 1:2 for the standard curve.
Buffer, blank, standard and lysate samples were transferred into 384 well plate
Blank: 5 μl Tris-buffer+10 μl Tris-buffer+HSA+5 μl Substrate
Standard: 5 μl Tris-buffer+10 μl NE (diff. conc.)+5 μl Substrate
Lysate: 5 μl Tris-buffer+10 μl Lysat+[…] Substrate
The increase in fluorescence (Ex360 nm/Em 460 nm) is determined over 30 minutes with a Molecular Device Spectramax M5 Fluorescence Reader. Kinetic Reduction (Vmax units/sec); 4 vmax points. The amount of neutrophil elastase (ng/ml) is calculated using the standard curve and the Spectramax software. The result is interpolated to ng/mg lysate protein using excel formula functions. […] IC50 is calculated using Graphpad Prism; nonlinear fitting (log(inhibitor) vs. response—Variable slope).

Data set [3] is described as follows: Determination of metabolic stability with human liver microsomes. To be noted: pooled human liver microsomes, 37° C., test compound 1 μM, NADPH. A general note: Liver microsomes are vesicles of endoplasmic reticulum, rich in cytochrome P450 enzymes.
Experimental: as §1, §2, §3

The text below walks through data of patent US10238633B2, “Methods for treating pulmonary emphysema using substituted 2-Aza-bicyclo[2.2.1]heptane-3-carboxylic acid (benzyl-cyano-methyl)-amides inhibitors of Cathepsin C” (Boehringer Ingelheim International GmbH, priority 2013, dated 2019).

Read-outs that look alike come from different tables or passages of the source.

Turning to `N#Cc1ccc(-c2ccc(C[C@@H](C#N)NC(=O)[C@H]3N[C@H]4C[C@@H]3[C@@H]3C[C@@H]34)c(F)c2)s1` [Example 40], the “In vitro stability in human liver microsome incubations t½” value (from here on “In vitro stability”) in data set [1] was more than 2.17 h.
Still for that read-out and setting: for `N#C[C@H](Cc1ccc(-c2cc(C(=O)N3CCn4nccc4C3)co2)cc1F)NC(=O)[C@H]1N[C@@H]2CC[C@H]1C2` [Example 240] the value was 1.83 h.
As for `N#C[C@H](Cc1ccc(N2CC3CCN(C4CCOC4)C3C2)cc1F)NC(=O)[C@H]1N[C@@H]2CC[C@H]1C2` (stereo partly drawn) [Example 348], the concentration for half-maximal inhibition (IC50) (as a rule, the midpoint of a concentration-inhibition curve) in data set [2] was determined as 2 nM. For the same molecule, the “In vitro stability” value in data set [3] worked out at 2.17 h.
The corresponding values for `N#C[C@H](Cc1ccc(N2CCCN3CCCC3C2)cc1F)NC(=O)[C@H]1N[C@@H]2CC[C@H]1C2` (stereo partly drawn) [Example 271] are 1.7 nM and 2.17 h.
As for `CS(=O)(=O)c1cc(OCC(F)(F)F)cc(-c2ccc(C[C@@H](C#N)NC(=O)[C@H]3N[C@@H]4CC[C@H]3C4)c(F)c2)c1` [Example 276], the “In vitro stability” value in data set [3] was 2.17 h.
Same read-out and setting: as for `N#CC(Cc1ccc(-c2cnn(-c3ccccc3)c2)cc1F)NC(=O)[C@H]1N[C@@H]2CC[C@H]1C2` (stereo partly drawn) [Example 78], the figure is 2.17 h; as for `CN1C(=O)Cc2ccc(-c3ccc(CC(C#N)NC(=O)[C@H]4N[C@@H]5CC[C@H]4C5)c(F)c3)cc21` (stereo partly drawn) [Example 15], 2.17 h.
Still for that read-out and setting: for `CS(=O)(=O)c1ccc(-c2ccc(C[C@@H](C#N)NC(=O)[C@H]3N[C@@H]4CC[C@H]3C4)c(F)c2)cc1OCC(F)F` [Example 252] the value was 2.17 h.
Regarding `CN1CCCN(S(=O)(=O)c2ccc(-c3ccc(C[C@@H](C#N)NC(=O)[C@H]4N[C@@H]5CC[C@H]4C5)c(F)c3)cc2)CC1` [Example 340], the IC50 in data set [2] was 0.8 nM.
As to `N#C[C@H](Cc1ccc(C2=CCN(C3CCOC3)CC2)cc1F)NC(=O)[C@H]1N[C@@H]2CC[C@H]1C2` (stereo partly drawn) [Example 332], in data set [2], the IC50 was 5.8 nM.
